Data as given in ChEMBL document CHEMBL3608295, “Antimicrobial activity of doubly-stapled alanine/lysine-based peptides” (Bioorg Med Chem Lett, 2015).
≈ marks a conversion by molar mass, not a printed value. Starred links: 1 amine or outer side, 2 acyl side, 3 side chain; linkers in the order of their positions; H or OH if unused. Positions of bridges follow the written chain, without caps; N, C: chain ends. Non-standard residues stand in square brackets, D forms with d. Residues, ends and D or L forms follow the SMILES beside them. R5 = C=CCCC[C@@](C)(N)C(=O)O; Suc = O=C(CCC(=O)[*:2])[*:1]

Tests used:
Bacillus spizizenii = experiment: Antimicrobial activity against Bacillus subtilis ATCC 6633 after 24 hrs by broth microdilution method; format: functional; settings: ATCC 6633, 24 h
Staphylococcus aureus = experiment: Antimicrobial activity against Staphylococcus aureus ATCC 6538p after 24 hrs by broth microdilution method; format: functional
[1] = test system: Staphylococcus epidermidis; experiment: Antimicrobial activity against Staphylococcus epidermidis ATCC 12228 after 24 hrs by broth microdilution method; format: functional; settings: ATCC 12228, 24 h
Escherichia coli = experiment: Antimicrobial activity against Escherichia coli ATCC 25922 after 24 hrs by broth microdilution method; format: functional; settings: ATCC 25922, 24 h
Shigella dysenteriae = experiment: Antimicrobial activity against Shigella dysenteriae ATCC 9752 after 24 hrs by broth microdilution method; format: functional; settings: ATCC 9752, 24 h
Salmonella typhimurium = experiment: Antimicrobial activity against Salmonella typhimurium ATCC 14028 after 24 hrs by broth microdilution method; format: functional, Salmonella enterica subsp. enterica serovar Typhimurium; settings: Salmonella enterica, ATCC 14028, 24 h
Klebsiella pneumoniae = experiment: Antimicrobial activity against Klebsiella pneumoniae ATCC 10031 after 24 hrs by broth microdilution method; format: functional; settings: ATCC 10031, 24 h
Pseudomonas aeruginosa = experiment: Antimicrobial activity against Pseudomonas aeruginosa ATCC 27853 after 24 hrs by broth microdilution method; format: functional; settings: ATCC 27853, 24 h
[2] = Hemolytic activity in human RBC at 25 uM after 30 mins relative to control; format: ADME, cell-based, Erythrocyte; settings: human red blood cells (RBC), read-out: Activity
[3] = Hemolytic activity in human RBC at 12.5 uM after 30 mins relative to control; format: ADME, cell-based, Erythrocyte; settings: human red blood cells (RBC), read-out: Activity
trypsin [4] = experiment: (§1) Stability of the compound assessed as trypsin (unknown origin)-mediated compound degradation at substrate/enzyme ratio of 1600/1 at 25 degC after 10 mins by HPLC analysis; format: ADME; settings: human, trypsin (unknown origin); read-out: Drug degradation
trypsin [5] = experiment: Stability of the compound assessed as trypsin (unknown origin)-mediated compound degradation by measuring compound remaining at substrate/enzyme ratio of 1600/1 at 25 degC after 60 mins by HPLC analysis; format: ADME; settings: human, read-out: Stability
[6] = as §1; format: ADME; settings: human, 10 min

Molecule | MIC (Bacillus spizizenii) | MIC (Staphylococcus aureus) | MIC [1] | MIC (Escherichia coli) | MIC (Shigella dysenteriae) | MIC (Salmonella typhimurium) | MIC (Klebsiella pneumoniae) | MIC (Pseudomonas aeruginosa) | hemolysis at 0.5 h, 25 µM [2] | hemolysis at 0.5 h, 12.5 µM [3] | metabolised at 10 min (trypsin [4]) | remaining at 1 h (trypsin [5]) | Stability [6]
CC(=O)N[C@@H](CCCCN)C(=O)N[C@]1(C)CCC/C=C\CCC[C@](C)(C(=O)N[C@@H](CCCCN)C(=O)N[C@@H](CCCCN)C(=O)N[C@@H](C)C(=O)N[C@@H](C)C(=O)N[C@@H](CCCCN)C(=O)N[C@@H](C)C(=O)N[C@@H](C)C(=O)N[C@@H](Cc2c[nH]c3ccccc23)C(=O)N[C@@H](CCCCN)C(N)=O)NC(=O)[C@H](C)NC(=O)[C@H](CCCCN)NC(=O)[C@H](C)NC1=O (Ac-K[R5]AKA[R5]KKAAKAAWK-NH2; staple (Z) 2-6) | 25 µg/mL (≈ 14.8 µM) | 9.4 µg/mL (≈ 5.56 µM) | 75 µg/mL (≈ 44.3 µM) | 3.1 µg/mL (≈ 1.83 µM) | 18.8 µg/mL (≈ 11.1 µM) | > 200 µg/mL | 18.8 µg/mL (≈ 11.1 µM) | 100 µg/mL (≈ 59.1 µM) | < 1% | < 1% | 73% |  | 
CC(=O)N[C@@H](CCCCN)C(=O)N[C@]1(C)CCC/C=C\CCC[C@](C)(C(=O)N[C@@H](CCCCN)C(=O)N[C@@H](CCCCN)C(=O)N[C@]2(C)CCC/C=C\CCC[C@](C)(C(=O)N[C@@H](Cc3c[nH]c4ccccc34)C(=O)N[C@@H](CCCCN)C(N)=O)NC(=O)[C@H](C)NC(=O)[C@H](CCCCN)NC(=O)[C@H](C)NC2=O)NC(=O)[C@H](C)NC(=O)[C@H](CCCCN)NC(=O)[C@H](C)NC1=O (Ac-K[R5]AKA[R5]KK[R5]AKA[R5]WK-NH2; staple (Z) 2-6, 9-13) | 1.6 µg/mL (≈ 0.889 µM) | 4.8 µg/mL (≈ 2.67 µM) | 3.1 µg/mL (≈ 1.72 µM) | 25 µg/mL (≈ 13.9 µM) | 25 µg/mL (≈ 13.9 µM) | 100 µg/mL (≈ 55.6 µM) | 200 µg/mL (≈ 111 µM) | 100 µg/mL (≈ 55.6 µM) | 38.8% | 22.1% |  | > 85% | 
CC(=O)N[C@@H](CCCCN)C(=O)N[C@]1(C)CCC/C=C\CCC[C@](C)(C(=O)N[C@@H](CCCCN)C(=O)N[C@@H](CCCCN)C(=O)N[C@]2(C)CCC/C=C\CCC[C@](C)(C(=O)N[C@@H](C)C(=O)N[C@@H](CCCCN)C(N)=O)NC(=O)[C@H](Cc3c[nH]c4ccccc34)NC(=O)[C@H](CCCCN)NC(=O)[C@H](C)NC2=O)NC(=O)[C@H](C)NC(=O)[C@H](CCCCN)NC(=O)[C@H](C)NC1=O (Ac-K[R5]AKA[R5]KK[R5]AKW[R5]AK-NH2; staple (Z) 2-6, 9-13) | 1.6 µg/mL (≈ 0.889 µM) | 3.1 µg/mL (≈ 1.72 µM) | 4.8 µg/mL (≈ 2.67 µM) | 50 µg/mL (≈ 27.8 µM) | 50 µg/mL (≈ 27.8 µM) | 200 µg/mL (≈ 111 µM) | 100 µg/mL (≈ 55.6 µM) | 100 µg/mL (≈ 55.6 µM) | 42.5% | 25.3% |  |  | 
CC(=O)N[C@@H](CCCCN)C(=O)N[C@]1(C)CCC/C=C\CCC[C@](C)(C(=O)N[C@@H](CCCCN)C(=O)N[C@@H](CCCCN)C(=O)N[C@]2(C)CCC/C=C\CCC[C@](C)(C(=O)N[C@@H](C)C(=O)N[C@@H](CCCCN)C(N)=O)NC(=O)[C@H](C)NC(=O)[C@H](CCCCN)NC(=O)[C@H](C)NC2=O)NC(=O)[C@H](Cc2c[nH]c3ccccc23)NC(=O)[C@H](CCCCN)NC(=O)[C@H](C)NC1=O (Ac-K[R5]AKW[R5]KK[R5]AKA[R5]AK-NH2; staple (Z) 2-6, 9-13) | 1.6 µg/mL (≈ 0.889 µM) | 1.6 µg/mL (≈ 0.889 µM) | 1.6 µg/mL (≈ 0.889 µM) | 18.8 µg/mL (≈ 10.4 µM) | 25 µg/mL (≈ 13.9 µM) | 37.5 µg/mL (≈ 20.8 µM) | 37.5 µg/mL (≈ 20.8 µM) | 25 µg/mL (≈ 13.9 µM) | 38.5% | 22% |  |  | 
CC(=O)N[C@@H](CCCCN)C(=O)N[C@]1(C)CCC/C=C\CCC[C@](C)(C(=O)N[C@@H](CCCCN)C(=O)N[C@@H](CCCCN)C(=O)N[C@]2(C)CCC/C=C\CCC[C@](C)(C(=O)N[C@@H](C)C(=O)N[C@@H](CCCCN)C(N)=O)NC(=O)[C@H](C)NC(=O)[C@H](CCCCN)NC(=O)[C@H](C)NC2=O)NC(=O)[C@H](C)NC(=O)[C@H](CCCCN)NC(=O)[C@H](Cc2c[nH]c3ccccc23)NC1=O (Ac-K[R5]WKA[R5]KK[R5]AKA[R5]AK-NH2; staple (Z) 2-6, 9-13) | 3.1 µg/mL (≈ 1.72 µM) | 4.8 µg/mL (≈ 2.67 µM) | 4.8 µg/mL (≈ 2.67 µM) | 25 µg/mL (≈ 13.9 µM) | 50 µg/mL (≈ 27.8 µM) | 100 µg/mL (≈ 55.6 µM) | 100 µg/mL (≈ 55.6 µM) | 200 µg/mL (≈ 111 µM) | 42.5% | 28.9% |  |  | 
C[C@@H]1NC(=O)[C@H](CCCCN)NC(=O)[C@H](C)NC(=O)[C@](C)(NC(=O)[C@H](CCCCN)NC(=O)[C@H](CCCCN)NC(=O)[C@@]2(C)CCC/C=C\CCC[C@@](C)(NC(=O)[C@@H](N)CCCCN)C(=O)N[C@@H](C)C(=O)N[C@@H](CCCCN)C(=O)N[C@@H](Cc3c[nH]c4ccccc34)C(=O)N2)CCC/C=C\CCC[C@](C)(C(=O)N[C@@H](C)C(=O)N[C@@H](CCCCN)C(N)=O)NC1=O (H-K[R5]AKW[R5]KK[R5]AKA[R5]AK-NH2; staple (Z) 2-6, 9-13) | 1.6 µg/mL (≈ 0.91 µM) | 1.6 µg/mL (≈ 0.91 µM) | 1.6 µg/mL (≈ 0.91 µM) | 3.1 µg/mL (≈ 1.76 µM) | 12.5 µg/mL (≈ 7.11 µM) | 6.3 µg/mL (≈ 3.59 µM) | 12.5 µg/mL (≈ 7.11 µM) | 6.3 µg/mL (≈ 3.59 µM) | 25.5% | 13.5% |  |  | 
C[C@@H]1NC(=O)[C@H](CCCCN)NC(=O)[C@H](C)NC(=O)[C@](C)(NC(=O)[C@H](CCCCN)NC(=O)[C@H](CCCCN)NC(=O)[C@@]2(C)CCC/C=C\CCC[C@@](C)(NC(=O)[C@H](CCCCN)NC(=O)CCC(=O)O)C(=O)N[C@@H](C)C(=O)N[C@@H](CCCCN)C(=O)N[C@@H](Cc3c[nH]c4ccccc34)C(=O)N2)CCC/C=C\CCC[C@](C)(C(=O)N[C@@H](C)C(=O)N[C@@H](CCCCN)C(N)=O)NC1=O (Suc-K[R5]AKW[R5]KK[R5]AKA[R5]AK-NH2; staple (Z) 2-6, 9-13) | 1.6 µg/mL (≈ 0.861 µM) | 1.6 µg/mL (≈ 0.861 µM) | 1.6 µg/mL (≈ 0.861 µM) | 12.5 µg/mL (≈ 6.73 µM) | 50 µg/mL (≈ 26.9 µM) | > 200 µg/mL | 25 µg/mL (≈ 13.5 µM) | 50 µg/mL (≈ 26.9 µM) | 32.6% | 19.5% |  |  | 
Ac-KAAKAAKKAAKAAWK-NH2 | > 200 µg/mL | > 200 µg/mL | > 200 µg/mL | > 200 µg/mL | > 200 µg/mL | > 200 µg/mL | > 200 µg/mL | > 200 µg/mL | < 1% | < 1% |  |  | Unstable
